This is an account of results in US20070292405A1, “Uses of Erss Modulators” (priority 2004, published 2007).

Series [1] deals with T1, mouse ERα receptor (mERα) (Mus musculus, UniProt P19785).
T1 construct: expressed in transfected cells; host or cells: COS (COS-1)
T1 sequence (P19785 1-599): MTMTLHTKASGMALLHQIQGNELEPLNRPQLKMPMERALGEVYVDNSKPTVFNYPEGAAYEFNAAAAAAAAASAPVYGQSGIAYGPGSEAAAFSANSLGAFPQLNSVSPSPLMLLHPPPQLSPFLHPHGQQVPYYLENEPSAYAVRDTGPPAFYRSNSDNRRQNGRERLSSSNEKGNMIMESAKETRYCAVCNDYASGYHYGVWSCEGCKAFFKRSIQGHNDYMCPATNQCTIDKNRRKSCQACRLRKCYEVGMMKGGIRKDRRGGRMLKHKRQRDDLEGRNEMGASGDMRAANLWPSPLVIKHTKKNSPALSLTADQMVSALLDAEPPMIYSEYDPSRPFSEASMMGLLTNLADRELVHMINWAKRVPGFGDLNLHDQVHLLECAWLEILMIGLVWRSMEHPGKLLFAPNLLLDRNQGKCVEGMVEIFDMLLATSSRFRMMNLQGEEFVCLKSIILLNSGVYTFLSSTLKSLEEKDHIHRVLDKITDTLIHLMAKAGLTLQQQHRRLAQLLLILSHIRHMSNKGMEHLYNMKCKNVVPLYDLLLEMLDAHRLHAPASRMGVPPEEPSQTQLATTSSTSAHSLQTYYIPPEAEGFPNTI
In words: Luciferase reporter assay: transactivation of (ERE)-TK-Luc by ERα in COS cells. In kind it is cell-based. Conditions: for activation of ERα (in words): compound alone, 7HD at similar concentration as for ERβ, ICI 182, 780 at 1 μM. The procedure:
(§1) Values shown are means (±S.E.M.) of 3 to 5 independent experiments each carried out in triplicate.
(§2) COS-1 cells and HepG2 cells were maintained in high glucose Dulbecco's minimum essential medium (DMEM) containing penicillin (25 units/ml), streptomycin (25 μg/ml), and 10% fetal calf serum (v/v). Cells were seeded at a density of 5×10^5 cells/dish and left to adhere overnight. On the day of the transfection, the medium was replaced with DMEM lacking phenol red supplemented with 10% DCC-FCS (v/v). Transfections were carried out using the calcium phosphate procedure according to standard protocols with 10 μg DNA ([…] expression plasmid, 1-5 μg reporter plasmid, 1 μg pCH110 encoding β-galactosidase used as internal control (Pharmacia) and 3-7 μg pGEM3). Expession plasmid were: the mouse ERα receptor (mERα gift from Prof. M. Parker, London U.K. (31)), human ERβ. receptor (hERβ; from Dr R. White, London U.K. (32)) and human androgen receptor (pSVARo; Prof. A. Brinkman, Rotterdam Holand). […] Reporter plasmids were: (ERE)-TK-Luc (gift From Dr V. Giguere, Montreal, Canada) for estrogen responsivity and PSA (PSA61-luc, Prof. J. Trapman, Rotterdam Holland) for androgen responsivity. […] Following cell lysis, luciferase and β-galactosidase activities were measured as described (33). Data are expressed as relative luciferase/β-galactosidase and are means±S.E.M. from at least three independent experiments.
(§3) Both COS-1 cells and HepG2 cells were used and both these cell lines require exogenous AR, ERα and ERβ to activate androgen (PSA) or estrogen (ERE) responsive reporter genes.
Background: In a reporter assay the amount or activity of a reporter protein is the signal.

Series [2] has as its target T2, human ERβ receptor (hERβ) (Homo sapiens, UniProt Q92731).
T2 construct: expressed in transfected cells; host or cells: HepG2
In words: Luciferase reporter assay: transactivation of (ERE)-TK-Luc by ERβ in HepG2 cells. In kind it is cell-based. The procedure:
as §1, §2, §3

A further series addresses T3, human ERβ receptor (Homo sapiens, UniProt Q92731).
T3 construct: made in house; host or cells: cell-free: TnT-coupled reticulocyte lysate system (Promega)
In words: Ligand-competition study: [3H]-E2 binding to in vitro synthesised ERβ protein. The settings on record: 7HD 0-250 μM, 16 h, reticulocyte lysate. The method, then:
Reticulocyte lysate containing ERβ protein was equilibrated for 16 h with […] [3H]-E2 and the indicated fold excess of 7HD. Data represent [3H]-E2 bound in presence of 7HD (0-250 μM). [3H]-E2 binding in the absence of 7HD was set at 100%. *, p<0.001 and γ, p<0.01; 7HD vs control without 7HD.
Human ERβ clone was synthesised in vitro using the TnT-coupled reticulocyte lysate system following manufacturer instructions (Promega, Southampton, U.K.). Translation reaction mixtures were diluted five times with TEDGMo buffer (40 mM Tris/Hcl, pH 7.4/1 mM EDTA/10% (vol/vol) glycerol/10 mMNa2MoO4/10 mM DTT) and 0.1 ml aliquots were incubated for 16 h at 4° C. with 0.5 nM [2,4,6,7-^3H]4-E2 (specific radioactivity 89 Ci/mmol) in presence of either 0, 1, 5, 10, 20, 50 and 250 μM of 7HD. Bound and unbound steroids were separated by filtration.
The ability of 7HD to inhibit [^3H]-E2 binding was also measured by a competition binding assay using human ERβ receptor synthesised in vitro from our human ERβ clone (hERβ) using a TnT-coupled reticulocyte lysate system (FIG. 7). In our competition study, 7HD interacted with ERβ receptor and inhibited [^3H]-E2 binding dose-dependently.

Series [3] concerns the target T4, human androgen receptor (hAR) (Homo sapiens, UniProt P10275).
T4 construct: expressed in transfected cells; host or cells: COS-1
T4 sequence (P10275 1-920): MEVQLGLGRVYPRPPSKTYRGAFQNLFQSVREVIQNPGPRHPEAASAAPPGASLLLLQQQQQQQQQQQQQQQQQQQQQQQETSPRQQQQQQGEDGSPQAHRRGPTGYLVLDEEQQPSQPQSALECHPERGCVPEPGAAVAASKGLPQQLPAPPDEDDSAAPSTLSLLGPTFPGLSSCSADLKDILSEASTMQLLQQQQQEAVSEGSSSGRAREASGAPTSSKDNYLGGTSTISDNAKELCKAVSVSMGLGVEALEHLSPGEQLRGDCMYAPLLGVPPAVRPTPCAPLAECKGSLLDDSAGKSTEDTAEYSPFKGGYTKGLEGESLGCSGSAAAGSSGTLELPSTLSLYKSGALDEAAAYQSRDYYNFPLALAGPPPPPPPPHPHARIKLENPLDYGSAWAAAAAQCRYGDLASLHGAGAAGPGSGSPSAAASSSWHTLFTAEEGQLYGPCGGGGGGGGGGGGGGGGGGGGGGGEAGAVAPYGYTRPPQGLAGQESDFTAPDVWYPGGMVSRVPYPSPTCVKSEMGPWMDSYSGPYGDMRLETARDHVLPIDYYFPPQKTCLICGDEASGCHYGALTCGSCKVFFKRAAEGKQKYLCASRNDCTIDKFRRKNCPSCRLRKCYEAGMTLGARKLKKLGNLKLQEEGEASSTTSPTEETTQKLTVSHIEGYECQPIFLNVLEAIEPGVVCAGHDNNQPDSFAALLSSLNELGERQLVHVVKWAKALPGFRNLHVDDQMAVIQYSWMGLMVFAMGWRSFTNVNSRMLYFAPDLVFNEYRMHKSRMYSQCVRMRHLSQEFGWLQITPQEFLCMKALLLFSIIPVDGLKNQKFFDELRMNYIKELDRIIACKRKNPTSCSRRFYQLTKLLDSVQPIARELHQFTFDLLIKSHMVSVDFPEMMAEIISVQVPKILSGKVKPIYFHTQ
Kind of series: Luciferase reporter assay: transactivation of PSA-Luc reporter in COS-1 cells containing hAR. It is filed as cell-based. The procedure: as §1
COS-1 cells and HepG2 cells were maintained in high glucose Dulbecco's minimum essential medium (DMEM) containing penicillin (25 units/ml), streptomycin (25 μg/ml), and 10% fetal calf serum (v/v). Cells were seeded at a density of 5×10^5 cells/dish and left to adhere overnight. On the day of the transfection, the medium was replaced with DMEM lacking phenol red supplemented with 10% DCC-FCS (v/v). Transfections were carried out using the calcium phosphate procedure according to standard protocols with 10 μg DNA ([…] expression plasmid, 1-5 μg reporter plasmid, 1 μg pCH110 encoding β-galactosidase used as internal control (Pharmacia) and 3-7 μg pGEM3). Expession plasmid were: the mouse ERα receptor (mERα gift from Prof. M. Parker, London U.K. (31)), human ERβ. receptor (hERβ; from Dr R. White, London U.K. (32)) and human androgen receptor (pSVARo; Prof. A. Brinkman, Rotterdam Holand). […] Following cell lysis, luciferase and β-galactosidase activities were measured as described (33). Data are expressed as relative luciferase/β-galactosidase and are means±S.E.M. from at least three independent experiments. […]

In series [4] the test system is whole human prostate chips. In words: DHEA metabolism in whole human prostate chips, metabolites analysed by HPLC. In kind it is in vitro ADME.
The test system of a further series is 3β-HSD. In words: Production of A/anedione from DHEA in human prostate chips (TLC). In kind it is biochemical. The settings on record: 1 μM trilostane.

T2 sequence (Q92731 whole entry): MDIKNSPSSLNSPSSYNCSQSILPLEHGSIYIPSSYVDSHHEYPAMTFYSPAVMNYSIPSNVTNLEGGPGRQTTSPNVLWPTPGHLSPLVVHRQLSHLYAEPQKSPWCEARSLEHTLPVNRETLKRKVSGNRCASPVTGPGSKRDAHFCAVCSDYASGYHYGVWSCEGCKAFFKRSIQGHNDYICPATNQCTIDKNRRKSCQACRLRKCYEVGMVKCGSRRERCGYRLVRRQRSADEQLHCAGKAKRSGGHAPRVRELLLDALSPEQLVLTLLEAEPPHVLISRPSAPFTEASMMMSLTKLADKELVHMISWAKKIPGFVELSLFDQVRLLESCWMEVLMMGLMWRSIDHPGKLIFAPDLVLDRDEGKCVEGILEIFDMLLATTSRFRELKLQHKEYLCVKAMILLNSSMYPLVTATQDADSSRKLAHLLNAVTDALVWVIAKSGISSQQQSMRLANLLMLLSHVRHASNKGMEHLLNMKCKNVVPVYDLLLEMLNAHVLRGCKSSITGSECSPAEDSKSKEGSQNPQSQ
T3 sequence (Q92731 whole entry): as above

On to `C[C@]12CC[C@H](O)CC1=C[C@@H](O)[C@@H]1[C@@H]2CC[C@]2(C)C(=O)CC[C@@H]12` [7HD, 7α-hydroxyDHEA], for which the “activation of ERα (in words)” value in series [1] was “minimal, non-specific activation”. For the same compound, the half-maximal effective concentration (EC50) (usually the midpoint of the concentration-response curve) in series [2] ((ERE)-TK-Luc, HepG2 cells, read-out: EC50 of activation of ERβ-mediated transcription) was 6.2 µM. In addition, the “transcriptional effect combined with sub-minimal dose of E2” value in series [2] (E2 0.1 nM, p<0.01) was “additive”. For the same compound, the “activation of ERβ-mediated transcription (in words)” value in series [2] (compound alone, ICI 182, 780 at 1 μM) was “significantly activated”. Also, the “inhibition of [3H]-E2 binding to ERβ” value on human ERβ receptor is on record as “dose-dependently”. Besides, the “activation of androgen receptor dependent transcription of PSA-luciferase reporter (in words)” value in series [3] is on record as “unable to activate”.

As for `C[C@]12CC[C@H](O)CC1=CC[C@@H]1[C@@H]2CC[C@]2(C)C(=O)CC[C@@H]12` [DHEA, dehydroepiandosterone], in series [4], the “share of DHEA metabolites that represent A/enetriol” value was found to be 9%; the “share of DHEA metabolites that were products of 3β-HSD and 17β-HSD” value was determined as 37%.

For `C[C@]12CC[C@@H]3c4ccc(O)cc4C[C@@H](CCCCCCCCC[S+]([O-])CCCC(F)(F)C(F)(F)F)[C@H]3[C@@H]1CC[C@@H]2O` (some centres unmarked) [ICI 182, 780], the “effect on E2 and 7HD-induced transcription of luciferase, ERα co-transfected cells” value in series [1] (1 μM) is “completely abolished”. Moreover, the “activation of ERα (in words)” value in series [1] was “could not stimulate”.

Regarding `C[C@]12CC[C@H]3[C@@H](CC[C@@]45O[C@@H]4C(O)=C(C#N)C[C@]35C)[C@@H]1CC[C@@H]2O` [Trilostane], in the series on 3β-HSD, the “effect on production of A/anedione” value is “successfully blocked”.
